Key:
[1] = Steady state volume of distribution (Vdss) after i.v. dosing at 1 mg kg-1; format: ADME, organism-based; set-up: dose 1 mg kg-1, route intravenous; conditions: in vivo, iv, read-out: Vdss
[2] = AUC after i.p. dosing at 5 mg kg-1; format: ADME, organism-based; set-up: dose 5 mg kg-1, route intraperitoneal; conditions: mouse, plasma, ip
[3] = Bioavailability after i.p. dosing at 5 mg kg-1; format: ADME, organism-based; conditions: mouse, in vivo, ip
[4] = (§1) AUC after oral dosing at 5 mg kg-1; format: ADME, organism-based, Plasma; set-up: dose 5 mg kg-1, route oral; conditions: mouse, plasma
[5] = Half life after i.v. dosing at 1 mg kg-1; format: ADME, organism-based; set-up: dose 1 mg kg-1, route intravenous; conditions: in vivo, iv
[6] = Microsome stability: percent compound remaining; format: ADME; conditions: microsomes
CYP2D6 = CYP2D6 (Homo sapiens, UniProt P10635); assay: Percent inhibition of CYP450 2D6 at 1uM concentration; format: ADME
Sequence of CYP2D6 (P10635 whole entry): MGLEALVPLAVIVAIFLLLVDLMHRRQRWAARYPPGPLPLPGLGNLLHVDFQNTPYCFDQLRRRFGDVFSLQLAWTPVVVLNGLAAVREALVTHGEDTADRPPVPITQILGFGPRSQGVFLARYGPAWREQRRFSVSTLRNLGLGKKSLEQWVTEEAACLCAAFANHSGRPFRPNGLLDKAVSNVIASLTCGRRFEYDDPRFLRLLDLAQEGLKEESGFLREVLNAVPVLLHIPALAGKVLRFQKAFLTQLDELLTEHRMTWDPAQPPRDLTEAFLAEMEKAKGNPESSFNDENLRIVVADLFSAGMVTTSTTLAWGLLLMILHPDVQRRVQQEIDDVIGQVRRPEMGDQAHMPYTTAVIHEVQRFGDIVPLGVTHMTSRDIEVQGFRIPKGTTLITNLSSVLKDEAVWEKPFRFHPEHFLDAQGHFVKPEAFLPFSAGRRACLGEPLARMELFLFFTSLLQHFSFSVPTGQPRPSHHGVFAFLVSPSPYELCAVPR

[7] = as §1; format: ADME, organism-based; set-up: dose 5 mg kg-1, route oral; conditions: rat, plasma
CYP1A2 = target: T1, CYP1A2 (Homo sapiens, UniProt P05177); assay: Percent inhibition of CYP450 1A2 at 1 uM concentration; format: ADME
T1 sequence (P05177 whole entry): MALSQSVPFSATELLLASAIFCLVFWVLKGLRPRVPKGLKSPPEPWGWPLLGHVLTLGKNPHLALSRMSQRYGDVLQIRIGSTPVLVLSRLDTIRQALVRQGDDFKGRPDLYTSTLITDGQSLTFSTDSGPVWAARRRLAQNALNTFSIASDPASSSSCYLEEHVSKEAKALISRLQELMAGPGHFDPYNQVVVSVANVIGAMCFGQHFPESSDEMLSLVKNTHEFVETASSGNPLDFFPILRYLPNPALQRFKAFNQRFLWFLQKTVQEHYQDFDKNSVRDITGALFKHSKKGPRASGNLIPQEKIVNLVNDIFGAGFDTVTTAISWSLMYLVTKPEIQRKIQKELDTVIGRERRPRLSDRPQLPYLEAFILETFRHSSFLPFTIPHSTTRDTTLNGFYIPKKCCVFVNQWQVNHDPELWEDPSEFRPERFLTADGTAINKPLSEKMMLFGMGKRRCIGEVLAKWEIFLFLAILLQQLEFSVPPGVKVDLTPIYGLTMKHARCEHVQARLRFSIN

[8] = Oral bioavailability after oral dosing at 5 mg kg-1; format: ADME, organism-based; conditions: in vivo
[9] = Permeability (Papp) run from pH 6.5-7.4; format: ADME, cell-based; conditions: human, Caco-2, pH 6.5
[10] = Clearance after i.v. dosing at 1 mg kg-1; format: ADME, organism-based; set-up: dose 1 mg kg-1, route intravenous; conditions: in vivo, iv
CYP2C9 = CYP2C9 (Homo sapiens, UniProt P11712); assay: Percent inhibition of CYP450 2C9 at 1 uM concentration; format: ADME
Sequence of CYP2C9 (P11712 whole entry): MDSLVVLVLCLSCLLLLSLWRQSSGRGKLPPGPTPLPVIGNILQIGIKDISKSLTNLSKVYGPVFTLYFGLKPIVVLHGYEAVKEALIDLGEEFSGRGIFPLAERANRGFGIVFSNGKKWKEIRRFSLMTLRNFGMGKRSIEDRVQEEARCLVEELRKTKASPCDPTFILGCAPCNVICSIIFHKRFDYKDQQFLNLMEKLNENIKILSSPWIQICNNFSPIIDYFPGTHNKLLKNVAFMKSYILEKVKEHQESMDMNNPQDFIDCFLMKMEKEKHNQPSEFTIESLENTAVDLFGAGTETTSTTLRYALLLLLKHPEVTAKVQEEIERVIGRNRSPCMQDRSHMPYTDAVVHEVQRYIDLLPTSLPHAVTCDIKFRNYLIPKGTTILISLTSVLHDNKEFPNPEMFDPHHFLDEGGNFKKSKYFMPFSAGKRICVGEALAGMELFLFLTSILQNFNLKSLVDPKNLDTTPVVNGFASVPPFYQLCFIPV

CYP2C19 = CYP2C19 (Homo sapiens, UniProt P33261); assay: Percent inhibition of CYP450 2C19 at 1 uM concentration; format: ADME
Sequence of CYP2C19 (P33261 whole entry): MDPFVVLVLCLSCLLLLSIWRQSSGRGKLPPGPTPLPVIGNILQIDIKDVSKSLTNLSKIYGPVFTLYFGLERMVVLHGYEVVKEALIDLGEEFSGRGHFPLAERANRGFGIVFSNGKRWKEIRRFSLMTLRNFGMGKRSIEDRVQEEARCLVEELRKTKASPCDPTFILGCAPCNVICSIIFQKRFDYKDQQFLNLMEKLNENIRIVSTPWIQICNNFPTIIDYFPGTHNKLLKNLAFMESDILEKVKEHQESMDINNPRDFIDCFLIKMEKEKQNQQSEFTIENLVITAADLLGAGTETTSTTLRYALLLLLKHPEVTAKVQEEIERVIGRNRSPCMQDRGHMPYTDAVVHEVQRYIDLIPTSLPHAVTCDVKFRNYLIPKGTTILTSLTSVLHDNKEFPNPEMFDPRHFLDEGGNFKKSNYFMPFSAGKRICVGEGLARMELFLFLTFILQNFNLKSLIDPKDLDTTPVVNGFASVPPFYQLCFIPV

[11] = Hepatocyte stability; format: ADME, cell-based; conditions: hepatocytes
MDA-MB-231 = assay: cells; format: functional, cell-based; conditions: Homo sapiens
Description: Inhibition of MDA-MB-231 cell proliferation (mean of two experiments)

Histone deacetylase 1 = Histone deacetylase 1 (Homo sapiens, UniProt Q13547); assay: Inhibition of HDAC activity measured by HDAC Fluorescent Activity Assay (mean of two experiments); format: functional
Sequence of Histone deacetylase 1 (Q13547 whole entry): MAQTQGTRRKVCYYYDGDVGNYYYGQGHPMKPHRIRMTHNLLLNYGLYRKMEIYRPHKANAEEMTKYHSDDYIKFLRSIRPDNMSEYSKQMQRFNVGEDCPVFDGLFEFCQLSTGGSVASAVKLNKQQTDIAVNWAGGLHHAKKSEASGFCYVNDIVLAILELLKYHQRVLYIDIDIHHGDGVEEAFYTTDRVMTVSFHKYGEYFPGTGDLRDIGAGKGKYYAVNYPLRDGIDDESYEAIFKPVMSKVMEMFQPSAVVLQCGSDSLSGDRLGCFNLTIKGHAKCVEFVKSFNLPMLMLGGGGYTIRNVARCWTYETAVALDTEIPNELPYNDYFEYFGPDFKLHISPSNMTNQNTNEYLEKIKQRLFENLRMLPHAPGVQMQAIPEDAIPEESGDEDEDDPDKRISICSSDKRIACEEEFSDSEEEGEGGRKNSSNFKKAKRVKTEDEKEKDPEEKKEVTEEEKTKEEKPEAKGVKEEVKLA

MCF7 = assay: Inhibition of MCF7 cell proliferation (mean of two experiments); format: functional, cell-based; conditions: Homo sapiens
HCT-116 = assay: cells; format: functional, cell-based; conditions: Homo sapiens;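 also: inhibition of HCT116 cell growth as proliferation read-out, each value averaged over two experiments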
Description: Inhibition of HCT116 cell proliferation (mean of two experiments)

O=C(CCCCCCC(=O)Nc1ccccc1)NO [VORINOSTAT]
Vd ([1]; mouse): 2.1 L/kg | Vd ([1]; rat): 1.6 L/kg | AUC [2]: 600 ng·h/mL | bioavailability [3]: 61% | AUC [4]: 200 ng·h/mL | half-life ([5]; mouse): 48 min | half-life ([5]; rat): 42 min | %R ([6]; human): 97% | %R ([6]; mouse): 114% | inhibition at 1 µM (CYP2D6): 8% | AUC [7]: 400 ng·h/mL | inhibition at 1 µM (CYP1A2): 14% | bioavailability ([8]; mouse): 14% | bioavailability ([8]; rat): 16% | Papp [9]: 8 ×10⁻⁶ cm/s | clearance ([10]; mouse): 78 mL/min/kg | clearance ([10]; rat): 67 mL/min/kg | inhibition at 1 µM (CYP2C9): 28% | inhibition at 1 µM (CYP2C19): 14% | Hepatocyte stability ([11]; human): 3 uL/min/10e6 cells | Hepatocyte stability ([11]; rat): 12 uL/min/10e6 cells

O=C(NO)c1ccc(-c2ccc(CNCCOc3ccccc3)cn2)s1
IC50 (MDA-MB-231): 300 nM | IC50 (Histone deacetylase 1): 11 nM | IC50 (MCF7): 110 nM

O=C(NO)c1ccc(-c2ccc(CNCc3ccc4c(c3)OCO4)cn2)s1
IC50 (Histone deacetylase 1): 8 nM | IC50 (HCT-116): 70 nM | IC50 (MCF7): 50 nM

O=C(NO)c1ccc(-c2ccc(CNCCc3ccc(F)cc3)cn2)s1
IC50 (Histone deacetylase 1): 9 nM | IC50 (HCT-116): 100 nM | IC50 (MCF7): 80 nM

O=C(NO)c1ccc(-c2ccc(CNCCCc3ccccc3)cn2)s1
IC50 (MDA-MB-231): 250 nM | IC50 (Histone deacetylase 1): 18 nM | IC50 (MCF7): 120 nM

O=C(NO)c1ccc(-c2ccc(CNCc3ccc4c(c3)OCCO4)cn2)s1
IC50 (Histone deacetylase 1): 11 nM | IC50 (HCT-116): 90 nM | IC50 (MCF7): 50 nM

O=C(NO)c1ccc(-c2ccc(CNCCc3ccccc3Cl)cn2)s1
IC50 (Histone deacetylase 1): 6 nM | IC50 (HCT-116): 80 nM | IC50 (MCF7): 80 nM

O=C(NO)c1ccc(-c2ccccn2)s1
IC50 (MDA-MB-231): 11000 nM | IC50 (Histone deacetylase 1): 243 nM | IC50 (MCF7): 2250 nM

O=C(NO)c1ccc(-c2ccc(CCNCc3ccccc3)cn2)s1
IC50 (MDA-MB-231): 210 nM | IC50 (Histone deacetylase 1): 9 nM | IC50 (MCF7): 80 nM
